Measured values reported in patent EP4650362A1, “NEUROPROTECTIVE PSD-95 POLYPEPTIDE INHIBITOR AND USE THEREOF” (Beijing Tuo Jie Biopharmaceutical Co. Ltd., priority 2023, dated 2024).
Like-named read-outs stand apart in the source and are kept apart here. Non-standard residues stand in square brackets, D forms with d. Residues, ends and D or L forms follow the SMILES beside them. Tle = CC(C)(C)[C@H](N)C(=O)O; Dab = NCC[C@H](N)C(=O)O; Aib = CC(C)(N)C(=O)O

Key:
[1] = pharmacokinetic study in rats, single intravenous bolus injection; assay type: in vivo, SD rats
Description: With male SD rats as test animals, the pharmacokinetic behavior of polypeptide compounds administered via single intravenous bolus injection in rats (plasma) was studied.
Male SD rats weighing 170 to 200 grams and aged 4-6 weeks were purchased from Beijing Vital River Laboratory Animal Technology Co., Ltd. The polypeptide compounds were dissolved in 1× PBS, and the polypeptide compound solutions were then administered via intravenous bolus injection over 10 min at a dose of 3 nmol/g, with three animals per group. At each of the time points of 2 min, 8 min, 15 min, 30 min, 45 min, 60 min, and 120 min after the end of bolus injection, 0.2 mL of blood was collected and transferred to an EDTA-K2 anticoagulation centrifuge tube. The whole blood sample was centrifuged at 4 °C at 4000 g for 5 min, and a plasma sample was obtained by separation and cryopreserved at -80 °C.
The pharmacokinetic parameters of polypeptide compound 22, administered via intravenous bolus injection, in rats were determined using a similar method, with the difference being that an enzyme inhibitor was added immediately after blood collection.
The plasma concentrations of the test compounds were determined using the method in Test Example 3.4.3. Plasma concentration-time curves were plotted, and the pharmacokinetic parameters were calculated using PKSolver software. The experimental results are shown in Table 5-1, Table 5-2, and FIG. 3.

[2] = plasma stability test, human plasma; assay type: in vitro ADME
Description: (§1) Solution preparation: An appropriate amount of a test polypeptide compound was weighed out and dissolved in an appropriate amount of 1× PBS to form a 1 mM test solution. NA-1 and NoNO42 were used as positive drugs, propantheline bromide was used as a human plasma test control, and lovastatin was used as a rat plasma test control. Plasma stability test: 12.5 µL of the 1 mM test solution was added to a 495 µL pre-incubated plasma sample. […] For each incubation time, two parallel samples were set. Subsequently, 200 µL of stop solution was added to stop the incubation, and the mixtures were vortexed for 5 min. Then the mixtures were centrifuged at 10,000 rpm at 4 °C for 10 min to remove the protein in the sample, and 70 µL of the supernatant was transferred to a new 96-well plate (70 µL of water was added to each well beforehand) and well mixed. […] Sample pretreatment: […] LC-MS analysis: […] (2) Mass-spectrometric conditions: The mass spectrometry analysis used an electrospray ionization (ESI) source, a positive ion analysis mode, and a multi-reaction monitoring (MRM) scan mode. […] The plasma stability of the polypeptide compound

[3] = plasma stability test with alteplase added, human plasma; assay type: in vitro ADME; settings: Human plasma + rt-PA (50 µg/mL alteplase), 25 µM
Description: as §1, with “mixed. Plasma stability test with alteplase added: An appropriate amount of solid alteplase was weighed out, and an appropriate volume of water was added. The mixture was vortexed to dissolve alteplase, forming a 1 mg/mL solution of alteplase. 250 µL of the 1 mg/mL solution of alteplase was added to 4750 µL of plasma to form a plasma sample containing 50 µg/mL alteplase. The other procedures were the same as in the aforementioned "plasma stability test", with the difference being that the plasma sample containing 50 µg/mL alteplase was used instead of plasma.” for “mixed.”

[4] = male, SD, rat, plasma, 3 nmol/g, rats, intravenous bolus injection, enzyme inhibitor added immediately after blood collection, n = 3
[5] = rats, intravenous bolus injection, enzyme inhibitor added (Table 5-2)

For CC[C@H](C)[C@H](NC(=O)[C@H](CO)NC(=O)[C@H](CO)NC(=O)[C@H](CC(C)C)NC(=O)[C@@H](CCCCN)NC(=O)[C@H](CCCNC(=N)N)NC(=O)[C@H](CCCNC(=N)N)NC(=O)[C@@H](CCCNC(=N)N)NC(=O)[C@H](CCC(N)=O)NC(=O)[C@@H](CCCNC(=N)N)NC(=O)[C@H](CCCNC(=N)N)NC(=O)[C@H](CCCCN)NC(=O)[C@H](CCCCN)NC(=O)[C@@H](CCCNC(=N)N)NC(=O)CNC(=O)[C@@H](N)Cc1ccc(O)cc1)C(=O)N[C@@H](CCC(=O)O)C(=O)N[C@@H](CO)C(=O)N[C@@H](CC(=O)O)C(=O)N[C@H](C(=O)O)C(C)C [NoNO42, YGrKKRrQrRRkLSSIESDV, reference compound] (H-YG[dR]KKR[dR]Q[dR]RR[dK]LSSIESDV-OH), the half-life ([1]; male, SD, rat, in vivo, iv) was 2.4 min, the AUClast/dose ([1]; rat, in vivo, iv) was 25 and the half-lives ([1]; rat, in vivo, iv) was “less than 3 min”. For the same compound, the remaining at 10 min, 25 µM ([2]; human, plasma) was 104%, the remaining at 20 min, 25 µM ([2]; human, plasma) was 104% and the remaining at 0.5 h, 25 µM ([2]; human, plasma) was 107%. For the same compound, the remaining at 1 h, 25 µM ([2]; human, plasma) was 99.3% and the remaining at 2 h, 25 µM ([2]; human, plasma) was 107%.

In the case of CC(C)[C@H](NC(=O)[C@H](CC(=O)O)NC(=O)[C@@H](NC(=O)[C@@H](NC(=O)[C@@H](NC(=O)[C@@H](NC(=O)[C@H](CCN)NC(=O)C(C)(C)NC(=O)CNC(=O)[C@@H](CCCNC(=N)N)NC(=O)[C@H](CCCNC(=N)N)NC(=O)[C@H](CCCNC(=N)N)NC(=O)[C@H](CCC(N)=O)NC(=O)[C@@H](CCCNC(=N)N)NC(=O)[C@H](CCCNC(=N)N)NC(=O)[C@H](CCCCN)NC(=O)[C@H](CCCCN)NC(=O)[C@H](N)CCCNC(=N)N)[C@@H](C)O)C(C)(C)C)C(C)(C)C)[C@@H](C)O)C(=O)O [Polypeptide compound 22, r-K-K-R-r-Q-R-R-r-G-Aib-Dab-T-Tle-Tle-T-D-V] (H-[dR]KKR[dR]QRR[dR]G[Aib][Dab]T[Tle][Tle]TDV-OH), the “Relative remaining compound content (%)” value ([3]; 0min (standard 100%)) is reported as 100.0%, the “Relative remaining compound content (%)” value ([3]; 10min) is reported as 97.9% and the “Relative remaining compound content (%)” value ([3]; 20min) is reported as 95.8%. For the same compound, the “Relative remaining compound content (%)” value ([3]; 30min) was 102.8%, the “Relative remaining compound content (%)” value ([3]; 60min) was 91.3% and the “Relative remaining compound content (%)” value ([3]; 120min) was 95.6%. For the same compound, the AUC(0-inf) ([1]; male, SD, rat, in vivo, 3 nmol/g, rats, intravenous bolus injection, enzyme inhibitor added immediately after blood collection, n = 3) was 24300 ng·h/mL, the MRT [1, 4] was 106 min and the Tmax [1, 4] was 21.6 min. The Cmax ([1]; male, SD, rat, plasma, 3 nmol/g, rats, intravenous bolus injection, enzyme inhibitor added immediately after blood collection, n = 3, read-out: Cmax) was 16900 ng/mL, the half-life ([1]; male, SD, rat, plasma, 3 nmol/g, rats, intravenous bolus injection, enzyme inhibitor added immediately after blood collection, n = 3, read-out: T1/2 (converted)) was 69.6 min and the “area under the curve (AUC) increase compared to NA-1” value [1, 5] was 19.4 fold. The “half-life increase compared to NA-1” value [1, 5] was 29 fold, the “maximum plasma concentration (Cmax) increase compared to NA-1” value [1, 5] was 2.3 fold and the AUClast/dose ([1]; rats, intravenous bolus injection, enzyme inhibitor added immediately after blood collection, n = 3) was 2239.6. For the same compound, the “Relative remaining compound content (%)” value ([2]; Human plasma, 25 µM, 0min (standard 100%)) was 100.0%, the remaining at 10 min, 25 µM ([2]; Human plasma, 25 µM, 10min, read-out: Relative remaining compound content (%)) was 99.5% and the remaining at 20 min, 25 µM ([2]; Human plasma, 25 µM, 20min, read-out: Relative remaining compound content (%)) was 97%. It also gave a remaining at 0.5 h, 25 µM ([2]; Human plasma, 25 µM, 30min, read-out: Relative remaining compound content (%)) of 104%, a remaining at 1 h, 25 µM ([2]; Human plasma, 25 µM, 60min, read-out: Relative remaining compound content (%)) of 98% and a remaining at 2 h, 25 µM ([2]; Human plasma, 25 µM, 120min, read-out: Relative remaining compound content (%)) of 90.1%.
